Data published in patent US12492197B2, “3,5-disubstituted pyrazole compounds as kinase inhibitors and uses thereof” (IMPACT THERAPEUTICS (SHANGHAI), INC, priority 2019, dated 2025).

How the values were obtained:
[1] = system: human colon cancer cell LoVo; experiment: Proliferation of LoVo cells, MTT assay; assay type: cell-based; conditions: 96 h, 4 days treatment, read-out: IC50 (inhibition of proliferation of LoVo)
[2] = system: human breast cancer cell HCC1806; experiment: Proliferation of HCC1806 cells, MTT assay; assay type: cell-based; conditions: HCC1806, 72 h, 3 days treatment, read-out: IC50 (inhibition of proliferation of HCC1806)
CHK1 kinase = target: T1, CHK1 kinase (Homo sapiens, UniProt O14757); experiment: CHK1 kinase inhibition, ADP-Glo kinase assay; assay type: biochemical; conditions: ATP 10 μM, CHK1 1 ng/well; for IC50: read-out: IC50 (inhibitory effect on CHK1 kinase activity); for inhibition at 0.01 µM: compound concentration 10 nM, read-out: Inh % (inhibitory effect on CHK1 kinase activity)
T1 construct: purchased Promega V1941
T1 sequence (O14757 1-476): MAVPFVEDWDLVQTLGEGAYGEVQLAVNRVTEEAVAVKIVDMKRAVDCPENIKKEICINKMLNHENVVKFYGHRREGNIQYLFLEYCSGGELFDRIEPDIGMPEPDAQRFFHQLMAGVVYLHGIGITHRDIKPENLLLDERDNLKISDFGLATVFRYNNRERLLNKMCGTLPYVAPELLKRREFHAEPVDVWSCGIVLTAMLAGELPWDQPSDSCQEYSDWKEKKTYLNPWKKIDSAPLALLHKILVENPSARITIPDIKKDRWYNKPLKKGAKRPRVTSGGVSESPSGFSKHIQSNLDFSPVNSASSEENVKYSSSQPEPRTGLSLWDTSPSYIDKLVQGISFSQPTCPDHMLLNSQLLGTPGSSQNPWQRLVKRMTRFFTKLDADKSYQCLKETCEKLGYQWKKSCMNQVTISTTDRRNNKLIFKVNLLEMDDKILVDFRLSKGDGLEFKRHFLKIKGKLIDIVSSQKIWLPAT

[3] = system: human pancreatic cancer cell SW1990; experiment: Proliferation of SW1990 cells, MTT assay; assay type: cell-based; conditions: SW1990, 120 h, 5 days treatment, read-out: IC50 (inhibition of proliferation of SW1990)
Experimental: Newly revived SW1990 cells (purchased from Shanghai Fuheng Biology) were cultured and passaged for at least three generations before use. Cells were used at about 90% confluency for experiments. Cells were digested with trypsinase and centrifuged at 800 rpm for 5 minutes. The cell pellets were resuspended in fresh DMEM medium and cells were counted. Cells were seeded on 96-well cell culture plates at 5000 cells/well and incubated overnight at 37° C., 5% CO2. The stock solutions of the test substances (including the test compounds and the reference compound) were serially diluted to 8 concentrations with DMSO at a ratio of 1:3. 5 μL of each serially diluted solutions was added to 120 μL of medium (diluted by 25 times) and mixed by shaking. […] The cell culture plates were returned to incubator at 37° C. and 5% CO2 for 5 days. At the end of the treatment the cell viability was determined by MTT colorimetric assay. Cell culture medium in each well was replaced by 100 μL/well of serum-free fresh medium containing MTT (0.5 mg/mL), and the culture was continued for additional 4 hours. Medium was then discarded and 100 μL/well of DMSO was added.
Data was analyzed by GraphPad Prism 6.0. The inhibitory effects of compounds on cell proliferation were plotted based on cell viability vs. the logarithm of compound concentration. Cell viability %=(ODcompound−ODbackground)/(ODDMSO−ODbackground)×100.

Structure (SMILES) | IC50 [1] | IC50 [2] | IC50 (CHK1 kinase) | inhibition at 0.01 µM (CHK1 kinase) | IC50 [3]
COc1cccc(OC[C@@H]2CNCCO2)c1-c1cc(Nc2ccc(C#N)nc2)n[nH]1 [Example 2, (S)-5-((5-(2-methoxy-6-(morpholin-2-ylmethoxy)phenyl)-1H-pyrazol-3-yl)amino)picolinonitrile] |  | 153 nM |  | 85% | 84.9 nM
COc1cccc(OC[C@H]2CNCCO2)c1-c1cc(Nc2cnc(C#N)cn2)n[nH]1 [Example 3, (R)-5-((5-(2-methoxy-6-(morpholin-2-ylmethoxy)phenyl)-1H-pyrazol-3-yl)amino)pyrazine-2-carbonitrile] |  | 94.2 nM |  | 79% | 50.7 nM
COc1cccc(OC[C@@H]2CN(C)CCO2)c1-c1cc(Nc2cnc(C#N)cn2)n[nH]1 [Example 4, (S)-5-((5-(2-methoxy-6-((4-methylmorpholin-2-yl)methoxy)phenyl)-1H-pyrazol-3-yl)amino)pyrazine-2-carbonitrile] |  | 139 nM |  | 82% | 123 nM
COc1cccc(OC[C@@H]2CNCCO2)c1-c1cc(Nc2cnc(C(F)(F)F)cn2)n[nH]1 [Example 5, (S)—N-(5-(2-methoxy-6-(morpholin-2-ylmethoxy)phenyl)-1H-pyrazol-3-yl)-5-(trifluoromethyl)pyrazin-2-amine] |  | 394 nM |  | 50% | 287 nM
COc1cccc(OCC2CCNCC2)c1-c1cc(Nc2cnc(C#N)cn2)n[nH]1 [Example 12, 5-((5-(2-methoxy-6-(piperidin-4-ylmethoxy)phenyl)-1H-pyrazol-3-yl)amino)pyrazine-2-carbonitrile] |  | 13.9 nM | 0.72 nM |  | 10.1 nM
COc1c(Cl)ccc(OC[C@@H]2CNCCO2)c1-c1cc(Nc2cnc(C#N)cn2)n[nH]1 [Example 15, (S)-5-((5-(3-chloro-2-methoxy-6-(morpholin-2-ylmethoxy)phenyl)-1H-pyrazol-3-yl)amino)pyrazine-2-carbonitrile] |  | > 1000 nM |  | 40% | 809 nM
COc1ccc(Cl)c(OC[C@@H]2CNCCO2)c1-c1cc(Nc2cnc(C#N)cn2)n[nH]1 [Example 17, (S)-5-((5-(3-chloro-6-methoxy-2-(morpholin-2-ylmethoxy)phenyl)-1H-pyrazol-3-yl)amino)pyrazine-2-carbonitrile] |  | 895 nM |  | 50% | 615 nM
COc1cc(Br)cc(OC[C@@H]2CNCCO2)c1-c1cc(Nc2cnc(C#N)cn2)n[nH]1 [Example 18, (S)-5-((5-(4-bromo-2-methoxy-6-(morpholin-2-ylmethoxy)phenyl)-1H-pyrazol-3-yl)amino)pyrazine-2-carbonitrile] |  | 39.2 nM |  | 79% | 19.6 nM
COc1cccc(OC2CCNCC2)c1-c1cc(Nc2cnc(C#N)cn2)n[nH]1 [Example 30, 5-((5-(2-methoxy-6-(piperidin-4-yloxy)phenyl)-1H-pyrazol-3-yl)amino)pyrazine-2-carbonitrile] |  | 31.7 nM |  | 89% | 19.1 nM
COc1cccc(OC[C@H]2CNCCS2)c1-c1cc(Nc2cnc(C#N)cn2)n[nH]1 [Example 76-B, (R)-5-((5-(2-methoxy-6-(thiomorpholin-2-ylmethoxy)phenyl)-1H-pyrazol-3-yl)amino)pyrazine-2-carbonitrile] | 17.8 nM | 18.5 nM | 1.21 nM |  | 

Compounds with a lower IC50 [2], results first:

IC50 [1] | IC50 [2] | IC50 (CHK1 kinase) | inhibition at 0.01 µM (CHK1 kinase) | IC50 [3] | Structure (SMILES)
19.2 nM | 12 nM | 0.69 nM | 94% | 6.1 nM | COc1cc(F)cc(OC[C@@H]2CNCCO2)c1-c1cc(Nc2cnc(C#N)cn2)n[nH]1 [Example 14, (S)-5-((5-(4-fluoro-2-methoxy-6-(morpholin-2-ylmethoxy)phenyl)-1H-pyrazol-3-yl)amino)pyrazine-2-carbonitrile]
 | 11.8 nM |  | 93% | 11.8 nM | COc1cc(Cl)cc(OC[C@@H]2CNCCO2)c1-c1cc(Nc2cnc(C#N)cn2)n[nH]1 [Example 16, (S)-5-((5-(4-chloro-2-methoxy-6-(morpholin-2-ylmethoxy)phenyl)-1H-pyrazol-3-yl)amino)pyrazine-2-carbonitrile]
15.5 nM | 7.4 nM | 0.84 nM | 95% | 6.3 nM | COc1cccc(OC[C@@H]2CNCCO2)c1-c1cc(Nc2cnc(C#N)cn2)n[nH]1 [Example 1, (S)-5-((5-(2-methoxy-6-(morpholin-2-ylmethoxy)phenyl)-1H-pyrazol-3-yl)amino)pyrazine-2-carbonitrile]
 | 2.1 nM | 0.45 nM |  | 1.9 nM | COc1cccc(OC[C@H]2CCNC2)c1-c1cc(Nc2cnc(C#N)cn2)n[nH]1 [Example 13, (S)-5-((5-(2-methoxy-6-(pyrrolidin-3-ylmethoxy)phenyl)-1H-pyrazol-3-yl)amino)pyrazine-2-carbonitrile]
2.1 nM | 1.4 nM | 0.79 nM |  |  | COc1cccc(OC[C@@H]2CNCCS2)c1-c1cc(Nc2cnc(C#N)cn2)n[nH]1 [Example 76-A, (S)-5-((5-(2-methoxy-6-(thiomorpholin-2-ylmethoxy)phenyl)-1H-pyrazol-3-yl)amino)pyrazine-2-carbonitrile]
4.4 nM | 1.2 nM | 0.97 nM | 92% | 1.2 nM | COc1cccc(OC[C@H]2CCCNC2)c1-c1cc(Nc2cnc(C#N)cn2)n[nH]1 [Example 9, (S)-5-((5-(2-methoxy-6-(piperidin-3-ylmethoxy)phenyl)-1H-pyrazol-3-yl)amino)pyrazine-2-carbonitrile]
